The structures appear in SMILES notation.

One series concerns the target T1, CD16a-158F FcR (Homo sapiens, UniProt P08637).
T1 construct: host or cells: Jurkat (JKT-CD16a luciferase reporter line)
The series can be described thus: Jurkat-CD16a-158F-luciferase (JKT-CD16a) reporter bioassay. It counts as cell-based.

The nature of series [1]: Metabolic stability in human liver microsomes. Type of series: in vitro ADME. As to the method: (§1) We next tested Compounds 2, 26, 27 and 33 for metabolic stability using human and mouse microsomes. For each test compound, samples were diluted a final concentration of 2 μg/mL in 25 mM potassium phosphate buffer with liver microsomes of each species at a final concentration of 0.5 mg/mL. The enzyme reaction was initiated by the addition of NADPH reagent at a final concentration of 1 mM. For negative control samples, NADPH reagent was not added. Samples were incubated at 37° C. on a 50-RPM orbital shaker, and an aliquot was removed at pre-determined timepoints at 0, 5, 10, 15, 30, and 60 minutes. Samples were then precipitated with three volume of acetonitrile containing propranolol as an internal standard, and centrifuged for 10 min at 2000 g then analyzed by LC/MS/MS. Note that compounds undergo only Phase I metabolism in liver microsomes in the presence of NADPH cofactors. Data interpretation of results are based on percent parent compound remaining relative to 0-minute incubation samples, from which the elimination half-life is calculated based on the natural log of % compound remaining vs. time plot. The following parameters were calculated to estimate the compound's in vitro metabolic stability: Cmp=concentration of microsomal proteins (mg/mL); t1/2=the half-life (min), where t1/2 is equal to 0.693/slope; CLint=the intrinsic hepatic clearance (μL/min/mg), where CLint is equal to 0.693/(t1/2×Cmp).

A short description of series [2]: Metabolic stability in mouse liver microsomes. It counts as in vitro ADME. As to the method:
as §1

For a further series, the target named is T2, human CD16a-158F (Homo sapiens, UniProt P08637).
T2 construct: made in house
T2 sequence (P08637 with tags, fused parts or gaps): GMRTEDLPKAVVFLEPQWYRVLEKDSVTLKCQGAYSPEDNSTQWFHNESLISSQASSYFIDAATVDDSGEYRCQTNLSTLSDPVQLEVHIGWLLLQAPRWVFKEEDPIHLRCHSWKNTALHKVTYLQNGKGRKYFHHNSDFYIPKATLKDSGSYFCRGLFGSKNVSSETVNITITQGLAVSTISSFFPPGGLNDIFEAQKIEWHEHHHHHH
The series can be described thus: ELISA: CD16a-158F-HIS binding to coated pertuzumab (PTZ). As to conditions: for enhancement of CD16a-158F binding to IgG (PTZ): 10 μM, P<0.005; for suppression of CD16a-PTZ interaction: 2.5 μg/mL PTZ coat, human CD16a-158F-HIS probe, P≤0.005. As to the method:
(§2) Analysis of Compound 2 derived analogs described in Example 3 were conducted testing for enhanced CD16a FcR binding to IgG via ELISA. Briefly, 96 well plates were coated with PTZ as described above and probed with CD16a-158F-HIS in the presence of 10 μM parental Compound 2 and R5/R6 Compound analogs 22-34 to assay for those mediating enhanced CD16a-IgG binding. […] To further evaluate the impact of enhanced binding these compounds were tested for enhancing human PBMC ADCC as described above. Human breast cancer SKBR3 cells were plated in black 96-well microplates at 5,000 cell/well in R7.5 and grown overnight at 37° C. in 5% CO2. The next day 50,000 PBMCs in R1 medium were added per well in the presence of 1 or 5 μM of each compound or ethanol (EtOH) vehicle control in triplicates. Wells treated with EtOH and PTZ without PBMCs were used as a negative control. Cultures were incubated for 24 hours at 37° C. in 5% CO2 in triplicate. After incubation, target cell viability was quantified via Cell Titer-GLO (Promega) using a Varioskan plate reader. Units are shown as relative luminescent units (RLU).
Analogs of this class may be useful for suppressing inflammatory diseases. […] The teaching here has shown that the Compound 1, 2, 3 and 4 scaffolds can be utilized to add chemical groups that can enhance their activity for CD16a stimulation. Here we provide an example of how these scaffolds can be used to develop CD16a antagonists to suppress CD16a-IgG interactions and downstream activities, including production of proinflammatory cytokines such as IFNγ. FIGS. 10 and 13 show ELISA binding assays as described in Example 1. Briefly, 96-well clear microplates were coated with 2.5 μg/mL pertuzumab (PTZ) IgG or HSA as negative control (no PTZ). Wells were then probed with human CD16a-158F-HIS with or without compounds to monitor CD16a-PTZ binding. […] These scaffolds embody a primary inventive step that is taught within this application.

A further series can be described thus: in vivo. As to conditions: mouse, po, 100 mg/kg. As to the method: To further determine the pharmacologic properties of Compound 27, we tested for its oral bioavailability and ability to activate NK cells systemically in mice as determined measuring NK cell activation markers IFNγ and TNFα. For oral bioavailability, mice were fed a standard laboratory rodent diet and housed in individual cages on a 12-hour light and 12-hour dark cycle with at […] and relative humidity at 50±20%. Animals are fasted overnight before dosing, with food returned after 6 hours at which time blood samples are obtained. Water is provided ad libitum throughout the study. Compound 27 was prepared by grinding its precipitated powder into fine particles and suspended in 0.5% hydroxypropyl methylcellulose (HPMC) in water. Three animals were dosed via gavage needle for oral administration at 100 mg/kg (10 mL/kg). Blood samples (25-30 μL per sample) were taken via the saphenous vein at 5, 15, 30 minutes, and 1, 2, 4, 6, 8, 24 hours after administration. Additional blood samples (150-200 μL per sample) were taken at 24 hours for cytokine analysis. Blood samples were collected in Greiner MiniCollect K2EDTA tubes, placed on ice, and within 30 minutes, centrifuged at 15,000 g for 5 min to obtain plasma samples with additional 50-100 μLs of each plasma sample collected at 24 hours. All plasma samples were stored at −70° C. until analysis.
Bioanalysis of plasma samples were conducted as follows. Plasma samples were prepared using three volumes of acetonitrile containing internal standard to one volume of plasma to precipitate proteins. Samples were centrifuged at 3000 g for 10 minutes and supernatant removed for analysis by LC-MS/MS. Calibration standards and quality controls were made by preparation of a 1 mg/mL stock solution and subsequently a series of working solutions in methanol:water (1:1, v/v), which were spiked into blank plasma to yield a series of calibration standard samples ranging from 1 ng/ml to 10 μg/mL and quality control samples at three concentration levels (low, middle and high). All incurred plasma samples were treated identically to the calibration standards and quality control samples. LC-MS/MS analysis was performed utilizing multiple reaction monitoring for detection of characteristic ions for each drug candidate, additional related analytes and internal standard. Plasma concentrations are measured as described above to determine a concentration vs. time profile. The area under the plasma concentration vs time curve (AUC) is calculated using the linear trapezoidal method, known by those skilled in the art. Fitting of the data to obtain pharmacokinetic (PK) parameters was carried out using non-compartmental analysis.
Key PK parameters reported following extravascular administration are as follows: terminal half-life t1/2, maximum plasma concentration Cmax, time to reach maximum plasma concentration tmax, area under the plasma concentration vs. time curve AUC, mean residence time MRT, and bioavailability F. All parameters are expressed for individual animals as well as mean, standard deviation, and coefficient of variation and are commonly known by those skilled in the art.

The next series concerns NK cells. The series can be described thus: Tolerability and NK cell activation markers after repeated oral dosing in mice. Type of series: in vivo, mouse. As to the method:
To determine the tolerability and ability to systemically activate NK cells in mice, we tested orally administered Compound 27 to mice. Six mice were randomized into treatment groups vehicle control (water) and 100 mg/kg Compound 27 all suspended in 0.5% hydroxypropyl methylcellulose. Mice were dosed orally on days 1-5, 7, 9, 11, 13, 15 and sacrificed on day 16 at which time plasma was collected. Tolerability was based on Day 1 bodyweight of each mouse. The maximum tolerated dose is determined as weight loss exceeding 20% or >10% of animals in a group die.
To confirm that oral administration of Compound 27 activated NK cells, the NK activation markers IFNγ and TNFα were measured from day 16 harvested plasma via ELISA using methods described in Example 1. […] These scaffolds embody a primary inventive step that is taught within this application.

Another series relates to SKBR3 cells. The series can be described thus: ADCC killing of SKBR3 cells via pertuzumab with human PBMCs. Type of series: cell-based. As to conditions: 1 or 5 μM, PTZ, 24 hours, P<0.0000075 over Compound 2. As to the method: as §2

T1 sequence (P08637 17-254): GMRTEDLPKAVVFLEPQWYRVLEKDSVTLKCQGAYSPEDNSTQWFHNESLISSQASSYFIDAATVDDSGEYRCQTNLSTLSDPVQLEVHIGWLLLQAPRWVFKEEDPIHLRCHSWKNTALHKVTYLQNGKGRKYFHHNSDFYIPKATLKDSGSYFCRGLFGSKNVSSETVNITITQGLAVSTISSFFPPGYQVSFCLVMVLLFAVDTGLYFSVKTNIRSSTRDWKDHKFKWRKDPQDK
T1 sequence (P20963 22-164 partner): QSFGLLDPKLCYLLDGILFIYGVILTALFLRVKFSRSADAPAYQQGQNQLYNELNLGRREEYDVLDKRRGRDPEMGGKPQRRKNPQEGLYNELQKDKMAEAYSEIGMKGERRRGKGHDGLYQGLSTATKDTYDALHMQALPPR

Take `CC(C)=CCC[C@@H](C)[C@H]1CC[C@@]2(C)C3=C(CC[C@]12C)[C@@]1(C)CC[C@H](O)C(C)(C)[C@@H]1CC3` [Compound 1, lanosta-8,24-dien-3β-ol]: at CD16a-158F FcR (OV-CD20 target cells plus 2.5 μg/mL rituximab, 12-18 hours, vs vehicle or no compound), the “JKT-CD16a activation (luciferase RLU) in the presence of IgG” value is listed as “significant enhancement”. Further, the “JKT-CD16a-158F FcR activation (luciferase RLU) in the absence of IgG antibody” value at CD16a-158F FcR (OV-CD20 target cells without antibody, lower levels than with IgG) is given as “stimulated”.
Consider `CC(C)NCCC[C@@H](C)[C@H]1CC[C@@]2(C)C3CC[C@H]4C(C)(C)[C@@H](O)CC[C@@]45C[C@@]35CC[C@]12C` (stereo partly drawn) [Compound 26], for which the microsomal CLint at 2 μg/mL in series [1] (human liver microsomes 0.5 mg/mL, 2 μg/mL compound, NADPH, read-out: CLint (μL/min/mg protein) human) stood at 3.04 µL/min/mg; in series [2] (mouse liver microsomes 0.5 mg/mL, 2 μg/mL compound, NADPH, read-out: CLint (μL/min/mg protein) mouse) it was 2.16 µL/min/mg. The half-life at 2 μg/mL in series [1] (human liver microsomes 0.5 mg/mL, 2 μg/mL compound, NADPH, read-out: T½ (minutes) human) was 456 min; in series [2] (mouse liver microsomes 0.5 mg/mL, 2 μg/mL compound, NADPH, read-out: T½ (minutes) mouse), 641 min. The “enhancement of CD16a-158F binding to IgG (PTZ)” value (from here on “enhancement … (PTZ)”) at human CD16a-158F is listed as “significantly enhanced”.
Consider `C[C@H](CCCN1CCCCC1)[C@H]1CC[C@@]2(C)C3CC[C@H]4C(C)(C)[C@@H](O)CC[C@@]45C[C@@]35CC[C@]12C` (stereo partly drawn) [Compound 27], for which, in the series “in vivo”, the AUC(0-t) is 7750 ng·h/mL, the Cmax worked out at 511 ng/mL, the Tmax is not above 6 h and the bioavailability is 11.7%. In addition, in “in vivo”, the concentration at 24 hours is 242 ng/mL and the half-life is 18.3 h. In series [1] (human, microsomes), this molecule gave a half-life at 2 μg/mL of 701 min and a microsomal CLint at 2 μg/mL of 1.98 µL/min/mg. Also, in series [2] (mouse, microsomes), the half-life at 2 μg/mL stood at 610 min and the microsomal CLint at 2 μg/mL came out at 2.27 µL/min/mg. At human CD16a-158F, the “enhancement … (PTZ)” value was “significantly enhanced”. For the same molecule, the “tolerability of multiple oral dosing (health, body weight)” value in the series with NK cells (100 mg/kg oral on days 1-5, 7, 9, 11, 13, 15) is listed as “well tolerated”. Also, in the series with NK cells (100 mg/kg oral, day 16 plasma, ELISA, vs vehicle, P<0.0056), the “plasma NK cell activation markers IFNγ and TNFα” value is on record as “upregulated”. Further, the “enhancement of ADCC killing of SKBR3 cells” value in the series with SKBR3 cells is on record as “enhanced ADCC most significantly”.
For `C[C@H](CCC(=O)O)[C@H]1CC[C@@]2(C)C3CC[C@H]4C(C)(C)[C@@H](O)CC[C@@]45C[C@@]35CC[C@]12C` (stereo partly drawn) [Compound 29], the “suppression of CD16a-PTZ interaction” value at human CD16a-158F is ~ 49%.
On the same count and under the same terms, then `C[C@H](CCCO)[C@H]1CC[C@@]2(C)C3CC[C@H]4C(C)(C)[C@@H](O)CC[C@@]45C[C@@]35CC[C@]12C` (stereo partly drawn) [Compound 31], with ~ 49%; and `C[C@H](CCCNCCOCCO)[C@H]1CC[C@@]2(C)C3CC[C@H]4C(C)(C)[C@@H](O)CC[C@@]45C[C@@]35CC[C@]12C` (stereo partly drawn) [Compound 32], with ~ 49%.
In series [1] (human, microsomes), `C[C@H](CCCNCCOCCOCCOCCOCCOCCOCCOCCOCCOCCOCCOCCO)[C@H]1CC[C@@]2(C)C3CC[C@H]4C(C)(C)[C@@H](O)CC[C@@]45C[C@@]35CC[C@]12C` (stereo partly drawn) [Compound 33] displayed a half-life at 2 μg/mL of 64.5 min and a microsomal CLint at 2 μg/mL of 21.5 µL/min/mg. In addition, in series [2] (mouse, microsomes), the half-life at 2 μg/mL is 65.8 min and the microsomal CLint at 2 μg/mL amounted to 21.1 µL/min/mg. For the same molecule, the “enhancement … (PTZ)” value on human CD16a-158F is reported as “significantly enhanced”. For the same molecule, the “enhancement of ADCC killing of SKBR3 cells” value in the series with SKBR3 cells is reported as “enhanced ADCC most significantly”.

The record behind these values is patent US20260256811A1, “Humoral Immune Activators for the Treatment of Humoral Immunosuppressed Pathologies, Cancer and Infectious Disease and Humoral Immune Suppressors for the Treatment of Inflammatory Diseases” (Navrogen, Inc., priority 2022, published 2026).
